ChEMBL document CHEMBL1130335, “Comparative molecular field analysis of a series of paclitaxel analogues” (J Med Chem, 1997)

Assay: Measured activity expressed as ID50 (analogue)/ID50 (paclitaxel), where ID50 is the concentration of compound leading to 50% inhibition of the rate microtubule disassembly
Assay type: functional
In the case of `CC(=O)O[C@H]1C(=O)[C@]2(C)[C@@H](O)CC3OC[C@@]3(OC(C)=O)[C@H]2[C@H](OC(=O)c2ccccc2)[C@]2(O)C[C@H](OC(=O)[C@H](O)[C@H](NC(=O)c3ccccc3)c3ccc(C)cc3)C(C)=C1C2(C)C` (some centres undefined), the Activity is reported as 0.8. Molecule `CC(=O)O[C@H]1C(=O)[C@]2(C)[C@@H](O)CC3OC[C@@]3(OC(C)=O)[C@H]2[C@H](OC(=O)c2ccccc2)[C@]2(O)C[C@H](OC(=O)[C@H](O)[C@H](NC(=O)c3ccc(C)cc3)c3ccccc3)C(C)=C1C2(C)C` (some centres undefined) has an Activity of 1.1. Molecule `CC(=O)O[C@H]1C(=O)[C@]2(C)[C@@H](O)CC3OC[C@@]3(OC(C)=O)[C@H]2[C@H](OC(=O)c2ccccc2)[C@]2(O)C[C@H](OC(=O)[C@H](O)[C@H](NC(=O)CC(C)C)c3ccccc3)C(C)=C1C2(C)C` (some centres undefined) has an Activity of 1.9. For `CC(=O)O[C@@H]1C2=C(C)[C@@H](OC(=O)[C@H](O)[C@@H](NC(=O)OC(C)(C)C)[C@H]3COC(C)(C)O3)C[C@@](O)([C@@H](OC(=O)c3ccccc3)[C@H]3[C@@](C)([C@@H](O)CC4OC[C@]43OC(C)=O)[C@H]1O)C2(C)C` (some centres undefined), the Activity was 7.91. With `C/C=C/C(=O)O[C@H]1C[C@@]2(O)[C@@H](OC(=O)c3ccccc3)[C@H]3[C@](C)(C(=O)[C@H](OC(C)=O)C(=C1C)C2(C)C)[C@@H](O)CC1OC[C@]13OC(C)=O` (some centres undefined) the Activity was 100. Work on `CO[C@H]1[C@H](OC(C)=O)C2=C(C)[C@@H](OC(=O)[C@H](O)[C@@H](NC(=O)OC(C)(C)C)c3ccccc3)C[C@@](O)([C@@H](OC(=O)c3ccccc3)[C@H]3[C@@]1(C)[C@@H](O)CC1OC[C@]13OC(C)=O)C2(C)C` (some centres undefined) yielded an Activity of 0.51. In the case of `CC(=O)O[C@@]12COC1C[C@H](O)[C@@]1(C)C(=O)[C@H](O)C3=C(C)[C@@H](OC(=O)[C@H](NC(=O)OC(C)(C)C)[C@H](O)c4ccccc4)C[C@@](O)([C@@H](OC(=O)c4ccccc4)[C@@H]12)C3(C)C` (some centres undefined), the Activity is reported as 10. With `CC(=O)O[C@H]1C(=O)[C@]2(C)[C@@H](O)CC3OC[C@@]3(OC(C)=O)[C@H]2[C@H](OC(=O)c2ccccc2)[C@]2(O)C[C@H](OC(=O)[C@H](O)[C@H](NC(=O)c3ccc(Cl)cc3)c3ccccc3)C(C)=C1C2(C)C` (some centres undefined) the Activity was 2.4. `CC(=O)O[C@@H]1C2=C(C)[C@@H](OC(=O)[C@H](O)[C@@H](NC(=O)NC(C)(C)C)c3ccccc3)C[C@@](O)([C@@H](OC(=O)c3ccccc3)[C@H]3[C@@](C)([C@@H](O)CC4OC[C@]43OC(C)=O)[C@H]1O)C2(C)C` (some centres undefined) showed an Activity of 1.06. `C/C=C(/C)C(=O)N[C@H](c1ccccc1)[C@@H](O)C(=O)O[C@H]1C[C@@]2(O)[C@@H](OC(=O)c3ccccc3)[C@H]3[C@](C)(C(=O)[C@H](OC(C)=O)C(=C1C)C2(C)C)[C@@H](O)CC1OC[C@]13OC(C)=O` (some centres undefined) showed an Activity of 1.5. Work on `CCOC(=O)N[C@@H](c1ccccc1)[C@@H](O)C(=O)O[C@H]1C[C@@]2(O)[C@@H](OC(=O)c3ccccc3)[C@H]3[C@@](C)([C@@H](O)CC4OC[C@]43OC(C)=O)[C@@H](O)[C@H](OC(C)=O)C(=C1C)C2(C)C` (some centres undefined) yielded an Activity of 0.82. `CC(=O)O[C@H]1C(=O)[C@]2(C)[C@@H](O)CC3OC[C@@]3(OC(C)=O)[C@H]2[C@H](OC(=O)c2ccccc2)[C@]2(O)C[C@H](OC(=O)[C@H](O)[C@H](NC(=O)c3ccccc3)c3ccc(O)cc3)C(C)=C1C2(C)C` (some centres undefined) showed an Activity of 0.8. For `CC(=O)O[C@@H]1C2=C(C)[C@@H](OC(=O)[C@H](O)[C@@H](NC(=O)c3ccccc3)c3ccccc3)C[C@@](O)([C@@H](OC(=O)c3ccccc3)[C@H]3[C@@](C)([C@@H](O)CC4OC[C@]43OC(C)=O)[C@H]1O)C2(C)C` (some centres undefined), the Activity was 0.86. Work on `CC(=O)N[C@@H](c1ccccc1)[C@@H](O)C(=O)O[C@H]1C[C@@]2(O)[C@@H](OC(=O)c3ccccc3)[C@H]3[C@@](C)([C@@H](O)CC4OC[C@]43OC(C)=O)[C@@H](O)[C@H](OC(C)=O)C(=C1C)C2(C)C` (some centres undefined) yielded an Activity of 3.17. `CC(=O)O[C@@]12COC1C[C@H](O)[C@@]1(C)C(=O)[C@H](O)C3=C(C)[C@@H](OC(=O)[C@H](O)Cc4ccccc4)C[C@@](O)([C@@H](OC(=O)c4ccccc4)[C@@H]12)C3(C)C` (some centres undefined) gave an Activity of 4.5. `CC(=O)O[C@H]1C(=O)[C@]2(C)[C@@H](O)CC3OC[C@@]3(OC(C)=O)[C@H]2[C@H](OC(=O)c2ccccc2)[C@]2(O)C[C@H](OC(=O)[C@H](O)[C@H](NC(=O)c3ccccc3)c3ccco3)C(C)=C1C2(C)C` (some centres undefined) showed an Activity of 0.9. With `CC(=O)O[C@H]1C(=O)[C@]2(C)[C@@H](O)CC3OC[C@@]3(OC(C)=O)[C@H]2[C@H](OC(=O)c2ccccc2)[C@]2(O)C[C@H](OC(=O)[C@@H](O)[C@@H](NC(=O)OC(C)(C)C)c3ccccc3)C(C)=C1C2(C)C` (some centres undefined) the Activity was 30. With `CC(=O)O[C@H]1C(=O)[C@]2(C)[C@@H](O)CC3OC[C@@]3(OC(C)=O)[C@H]2[C@H](OC(=O)c2ccccc2)[C@]2(O)C[C@H](OC(=O)[C@H](NC(=O)OC(C)(C)C)[C@H](O)c3ccccc3)C(C)=C1C2(C)C` (some centres undefined) the Activity was 10. Work on `COC(=O)[C@H]1CC2OC[C@@]2(OC(C)=O)[C@H]2[C@H](OC(=O)c3ccccc3)[C@]3(O)C[C@H](OC(=O)[C@H](O)[C@@H](NC(=O)c4ccccc4)c4ccccc4)C(C)=C([C@@H](OC(C)=O)[C@H](C(=O)OC)[C@]12C)C3(C)C` (some centres undefined) yielded an Activity of 0.91. For `CC(=O)O[C@H]1C(=O)[C@]2(C)[C@@H](O)CC3OC[C@@]3(OC(C)=O)[C@H]2[C@H](OC(=O)c2ccccc2)[C@]2(O)C[C@H](OC(=O)[C@@H](O)[C@@H](NC(=O)c3ccccc3)c3ccccc3)C(C)=C1C2(C)C` (some centres undefined), the Activity was 4.5. `CC(=O)O[C@H]1C(=O)[C@]2(C)[C@@H](O)CC3OC[C@@]3(OC(C)=O)[C@H]2[C@H](OC(=O)c2ccccc2)[C@]2(O)C[C@H](OC(=O)[C@H](O)[C@H](NC(=O)CC(C)(C)C)c3ccccc3)C(C)=C1C2(C)C` (some centres undefined) gave an Activity of 0.7. Work on `CC(=O)O[C@H]1C(=O)[C@]2(C)[C@@H](O)CC3OC[C@@]3(OC(C)=O)[C@H]2[C@H](OC(=O)c2ccccc2)[C@]2(O)C[C@H](OC(=O)[C@H](O)[C@H](NC(=O)c3ccccc3)c3ccccn3)C(C)=C1C2(C)C` (some centres undefined) yielded an Activity of 0.7. `CC(=O)O[C@H]1C(=O)[C@]2(C)[C@@H](O)CC3OC[C@@]3(OC(C)=O)[C@H]2[C@H](OC(=O)c2ccccc2)[C@]2(O)C[C@H](OC(=O)[C@H](O)[C@H](NC(=O)C(C)=O)c3ccccc3)C(C)=C1C2(C)C` (some centres undefined) showed an Activity of 3.5. Work on `CC(=O)O[C@H]1C(=O)[C@]2(C)[C@@H](O)CC3OC[C@@]3(OC(C)=O)[C@H]2[C@H](OC(=O)c2ccccc2)[C@]2(O)C[C@H](OC(=O)[C@@H](NC(=O)c3ccccc3)[C@@H](O)c3ccccc3)C(C)=C1C2(C)C` (some centres undefined) yielded an Activity of 110. `CC(=O)O[C@@]12COC1C[C@H](O)[C@@]1(C)C(=O)[C@H](O)C3=C(C)[C@@H](OC(=O)[C@H](O)[C@@H](NC(=O)OC(C)(C)C)c4ccccc4)[C@@H]4OC(C)(C)O[C@]4([C@@H](OC(=O)c4ccccc4)[C@@H]12)C3(C)C` (some centres undefined) showed an Activity of 3. Molecule `CC(=O)O[C@H]1C(=O)[C@]2(C)[C@@H](O)CC3OC[C@@]3(OC(C)=O)[C@H]2[C@H](OC(=O)c2ccccc2)[C@]2(O)C[C@H](OC(=O)[C@H](O)[C@H](NC(=O)c3ccccc3)c3cccc4ccccc34)C(C)=C1C2(C)C` (some centres undefined) has an Activity of 7.1. In the case of `CC(=O)O[C@H]1C(=O)[C@]2(C)[C@@H](O)CC3OC[C@@]3(OC(C)=O)[C@H]2[C@H](OC(=O)c2ccccc2)[C@]2(O)C[C@H](OC(=O)[C@H](O)[C@H](N)c3ccccc3)C(C)=C1C2(C)C` (some centres undefined), the Activity is reported as 44. `CC(=O)O[C@H]1C(=O)[C@]2(C)[C@@H](O)CC3OC[C@@]3(OC(C)=O)[C@H]2[C@H](OC(=O)c2ccccc2)[C@]2(O)C[C@H](OC(=O)[C@H](O)[C@H](NC(=O)c3ccccc3)c3ccc(Cl)c(Cl)c3)C(C)=C1C2(C)C` (some centres undefined) gave an Activity of 7.1. `CC(=O)O[C@@]12COC1C[C@H](O)[C@@]1(C)C(=O)[C@H](O)C3=C(C)[C@@H](OC(=O)/C=C/c4ccccc4)C[C@@](O)([C@@H](OC(=O)c4ccccc4)[C@@H]12)C3(C)C` (some centres undefined) gave an Activity of 23. Work on `CC(=O)O[C@H]1C(=O)[C@]2(C)[C@@H](O)CC3OC[C@@]3(OC(C)=O)[C@H]2[C@H](OC(=O)c2ccccc2)[C@]2(O)C[C@H](OC(=O)[C@H](O)[C@H](NC(=O)c3ccco3)c3ccccc3)C(C)=C1C2(C)C` (some centres undefined) yielded an Activity of 0.8. Work on `CC(=O)O[C@@H]1C2=C(C)[C@@H](OC(=O)[C@H](O)[C@H](COc3ccccc3)NC(=O)c3ccccc3)C[C@@](O)([C@@H](OC(=O)c3ccccc3)[C@H]3[C@@](C)([C@@H](O)CC4OC[C@]43OC(C)=O)[C@H]1O)C2(C)C` (some centres undefined) yielded an Activity of 5.81. Work on `COC(=O)[C@@H](C(=O)O[C@H]1C[C@@]2(O)[C@@H](OC(=O)c3ccccc3)[C@H]3[C@](C)(C(=O)[C@H](OC(C)=O)C(=C1C)C2(C)C)[C@@H](O)CC1OC[C@]13OC(C)=O)[C@H](NC(=O)c1ccccc1)c1ccccc1` (some centres undefined) yielded an Activity of 30. With `CC(=O)O[C@@H]1C2=C(C)[C@@H](OC(=O)[C@H](O)[C@@H](NC(=O)OC(C)C)c3ccccc3)C[C@@](O)([C@@H](OC(=O)c3ccccc3)[C@H]3[C@@](C)([C@@H](O)CC4OC[C@]43OC(C)=O)[C@H]1O)C2(C)C` (some centres undefined) the Activity was 0.75. For `CC(=O)O[C@@]12COC1C[C@H](O)[C@@]1(C)C(=O)[C@H](O)C3=C(C)[C@@H](OC(=O)[C@H](O)[C@H](NC(=O)OC(C)(C)C)c4ccccc4)C[C@@](O)([C@@H](OC(=O)c4ccccc4)[C@@H]12)C3(C)C` (some centres undefined), the Activity was 0.6. `CCCCOC(=O)N[C@H](c1ccccc1)[C@@H](O)C(=O)O[C@H]1C[C@@]2(O)[C@@H](OC(=O)c3ccccc3)[C@H]3[C@](C)(C(=O)[C@H](OC(C)=O)C(=C1C)C2(C)C)[C@@H](O)CC1OC[C@]13OC(C)=O` (some centres undefined) gave an Activity of 0.8. In the case of `CC(=O)O[C@H]1C(=O)[C@]2(C)[C@@H](O)CC3OC[C@@]3(OC(C)=O)[C@H]2[C@H](OC(=O)C2CCCCC2)[C@]2(O)C[C@H](OC(=O)[C@H](O)[C@@H](NC(=O)C3CCCCC3)C3CCCCC3)C(C)=C1C2(C)C` (some centres undefined), the Activity is reported as 0.47. Work on `CC(=O)O[C@@]12COC1C[C@H](O)[C@@]1(C)C(=O)[C@H](O)C3=C(C)[C@@H](OC(=O)[C@@H](NC(=O)c4ccccc4)[C@@H](O)c4ccccc4)C[C@@](O)([C@@H](OC(=O)c4ccccc4)[C@@H]12)C3(C)C` (some centres undefined) yielded an Activity of 170. For `CC(=O)O[C@@]12COC1C[C@H](O)[C@@]1(C)C(=O)C[C@@]34O[C@]3(C)[C@@H](OC(=O)[C@H](O)[C@@H](NC(=O)c3ccccc3)c3ccccc3)C[C@@](O)([C@@H](OC(=O)c3ccccc3)[C@@H]12)C4(C)C` (some centres undefined), the Activity was 0.66. Work on `CC(=O)O[C@@]12COC1C[C@H](O)[C@@]1(C)C(=O)[C@H](O)C3=C(C)[C@@H](OC(=O)[C@H](O)[C@@H](C=C(C)C)NC(=O)OC(C)(C)C)C[C@@](O)([C@@H](OC(=O)c4ccccc4)[C@@H]12)C3(C)C` (some centres undefined) yielded an Activity of 0.64.
